Laboratory results reported in paper PMC2953793 (Cancer chemotherapy and pharmacology, 2009).
Where “and” joins values, the source holds several entries; their conditions need not be identical. Identical values can stand only once. Like-named read-outs stand apart in the source and are kept apart here.

Key:
PARP [1] = test system: PARP
[2] = test system: human colon cancer and lung cancer xenograft models; settings: human colon cancer (ref 12) and lung cancer xenograft models (ref 1); cited from earlier work
[3] = CD-1 mice; cited from earlier work
PARP [4] = settings: phase 0 study, National Cancer Institute; single oral dose of 25 or 50 mg; cited from earlier work
PARP [5] = settings: cited from earlier work
[6] = individual animals, single 5 mg/kg dose, 5 mg/kg
[7] = individual animals, single 5 mg/kg dose, model parameter, 5 mg/kg
[8] = mean of three animals, single 5 mg/kg dose, model parameter

V1/F model-estimated apparent volume of distribution [6]: 40.0 L/kg and 24.2 L/kg
t1/2P model-estimated plasma half-life [6]: 3.9 h and 4.3 h
K21 rate constant for transfer from CSF to plasma [7]: 0.805 h⁻¹ and 0.420 h⁻¹ and 0.913 h⁻¹
Ka absorption rate constant [7]: 12.5 h⁻¹ and 53.5 h⁻¹ and 44.2 h⁻¹
Ke plasma elimination rate constant [7]: 0.18 h⁻¹ and 0.16 h⁻¹
τ time-delay for absorption of oral drug [7]: 0.76 h and 0.78 h and 2.75 h
Vd/F (male, rhesus monkey, plasma, po, 5 mg/kg, V1/F model-estimated apparent volume of distribution, individual animals, single 5 mg/kg dose): 41.5 L/kg
K12 rate constant for transfer from plasma to CSF [8]: 9.4e-06 h⁻¹
K21 rate constant for transfer from CSF to plasma [8]: 0.71 h⁻¹
Ka absorption rate constant [8]: 36.7 h⁻¹
τ time-delay for absorption of oral drug [8]: 1.43 h
time delay for absorption (range across animals, oral 5 mg/kg): 46 to 165 min
SMILES: C[C@]1(c2nc3c(C(N)=O)cccc3[nH]2)CCCN1 [ABT-888]
% PARP inhibition (PARP [1]; individual animals, PBMCs, 2 h post versus pre-treatment, single oral 5 mg/kg): 52% and 71% and 78%
reduction of PARP activity in PBMCs compared with pre-treatment levels (PARP [1]; mean ± SD of three animals, 2 h after a single dose): 67 ± 13%
PARP inhibition in NHP PBMCs (PARP [1]; range across animals, 2 h after single oral dose 5 mg/kg): 52–78%
potentiation of radiation [2]: potentiates radiation
accumulation in intracranial tumors versus normal brain [3]: preferentially accumulate in intracranial tumors versus normal brain
PARP inhibition in PBMCs and biopsied tumors (PARP [4]): > 90%
concentrations required for ex vivo PARP inhibition in PBMCs (PARP [5]): 0.1 to 0.3 µM
K12 rate constant for transfer from plasma to CSF [7]: 7e-06 h⁻¹ and 4.7e-06 h⁻¹ and 1.65e-05 h⁻¹
